Assay results taken from patent US12559509B1, “Citrate coordination complex of an orally-delivered beta-lactamase inhibitor and uses thereof” (priority 2023, dated 2026).
Counter-ions that a name gives are not always drawn.

Columns and labels:
Format in all cases: physicochemical
[1] = Dynamic Vapor Sorption (DVS) analysis; conditions: for solid form after DVS cycle, by XRPD: 0% RH to 98% RH and back to 0% RH; for weight gain: above 85% RH (up to 98% RH); for weight gain with increasing RH: between 0% RH and 85% RH
Experimental: Moisture sorption/desorption data were collected on a DVS-intrinsic vapor sorption analyzer (Surface Measurement Systems NA, Allentown, PA, USA) and operated with DVS-intrinsic control software (Version 1.0.5.1). Samples were not dried prior to analysis. Sorption and desorption data were collected over a range from 5% to 98% relative humidity (RH) via 10% RH increments under a nitrogen purge. The equilibrium criterion used for analysis was less than 0.005% weight change in 10 min with a maximum equilibration time of 3 h.
The DVS isotherm of Form B is qualitatively similar to that of Form A. Form B lost 0.1 wt % upon equilibration at ˜0% RH.

[2] = Chemical stability of drug substance controls and binary blend, HPLC purity; conditions: for degradation (in words): controls and binary blend, 25° C. and 40° C., through 12 weeks
[3] = Excipient compatibility at 50° C., HPLC purity
Experimental: The compatibility of the drug substances with select functional excipients was confirmed by comparing the assay and purity of samples stored at 50° C. for 5 weeks to the drug substance control samples. The excipients tested included: microcrystalline cellulose (binder); magnesium stearate (lubricant); sodium starch glycolate (disintegrant); and colloidal silica (glidant). […] The samples were transferred to a 3-dram glass vial with a tight-fitting cap and placed in a 50° C. oven.

[4] = Dissolution testing (Apparatus II method) of capsule prototypes; conditions: FDC capsule with ceftibuten dihydrate, 900 mL pH 6.8 50 mM sodium bicarbonate buffer, 75 RPM paddle
Experimental: In some embodiments, the citrate coordination complex allows for the development of a dry powder, immediate release formulation as compared to other forms, such as the ethanolate, which could not be formulated directly as an immediate release formulation. […] Dissolution testing (Apparatus II method) was performed using 900 mL of pH 6.8 50 mM sodium bicarbonate buffer solution and a 75 RPM paddle speed.

[5] = drug substance control, 25° C. Storage, 0 weeks
[6] = drug substance control, 25° C. Storage, 5 weeks
[7] = drug substance control, 25° C. Storage, 8 weeks
[8] = drug substance control, 25° C. Storage, 12 weeks
[9] = drug substance control, 40° C. Storage, 0 weeks
[10] = drug substance control, 40° C. Storage, 5 weeks
[11] = drug substance control, 40° C. Storage, 8 weeks
[12] = drug substance control, 40° C. Storage, 12 weeks
[13] = in binary Blend, 25° C. Storage, 0 weeks
[14] = in binary Blend, 25° C. Storage, 5 weeks
[15] = in binary Blend, 25° C. Storage, 8 weeks
[16] = in binary Blend, 25° C. Storage, 12 weeks
[17] = in binary Blend, 40° C. Storage, 0 weeks
[18] = in binary Blend, 40° C. Storage, 8 weeks
[19] = in binary Blend, 40° C. Storage, 12 weeks

CCC(=O)N[C@@H](Cc1cccc(C(=O)OCOC(=O)C(CC)CC)c1O)B(O)O.O=C(O)CC(O)(CC(=O)O)C(=O)O [(R)-(2-(3-((((2-ethylbutanoyl)oxy)methoxy)carbonyl)-2-hydroxyphenyl)-1-propionamidoethyl)boronic acid citrate]
solid form after DVS cycle, by XRPD [1]: XRPD of the sample matched that of the material before DVS analysis
Change In Mass (%)-ref, Desorption ([1]; Target RH 0.0 %): −0.17%
Change In Mass (%)-ref, Sorption ([1]; Target RH 0.0 %): −0.07%
Change In Mass (%)-ref, Desorption ([1]; Target RH 5.0 %): −0.13%
Change In Mass (%)-ref, Hysteresis ([1]; Target RH 5.0 %): −0.07%
Change In Mass (%)-ref, Sorption ([1]; Target RH 5.0 %): −0.05%
Change In Mass (%)-ref, Desorption ([1]; Target RH 15.0 %): −0.05%
Change In Mass (%)-ref, Hysteresis ([1]; Target RH 15.0 %): −0.08%
Change In Mass (%)-ref, Sorption ([1]; Target RH 15.0 %): 0.04%
Change In Mass (%)-ref, Desorption ([1]; Target RH 25.0 %): 0.06%
Change In Mass (%)-ref, Hysteresis ([1]; Target RH 25.0 %): −0.07%
Change In Mass (%)-ref, Sorption ([1]; Target RH 25.0 %): 0.13%
Change In Mass (%)-ref, Desorption ([1]; Target RH 35.0 %): 0.13%
Change In Mass (%)-ref, Hysteresis ([1]; Target RH 35.0 %): −0.04%
Change In Mass (%)-ref, Sorption ([1]; Target RH 35.0 %): 0.17%
Change In Mass (%)-ref, Desorption ([1]; Target RH 45.0 %): 0.25%
Change In Mass (%)-ref, Hysteresis ([1]; Target RH 45.0 %): −0.06%
Change In Mass (%)-ref, Sorption ([1]; Target RH 45.0 %): 0.31%
Change In Mass (%)-ref, Desorption ([1]; Target RH 55.0 %): 0.43%
Change In Mass (%)-ref, Hysteresis ([1]; Target RH 55.0 %): 0.02%
Change In Mass (%)-ref, Sorption ([1]; Target RH 55.0 %): 0.41%
Change In Mass (%)-ref, Desorption ([1]; Target RH 65.0 %): 0.56%
Change In Mass (%)-ref, Hysteresis ([1]; Target RH 65.0 %): 0.03%
Change In Mass (%)-ref, Sorption ([1]; Target RH 65.0 %): 0.53%
Change In Mass (%)-ref, Desorption ([1]; Target RH 85.0 %): 1.11%
Change In Mass (%)-ref, Hysteresis ([1]; Target RH 85.0 %): 0.13%
Change In Mass (%)-ref, Sorption ([1]; Target RH 85.0 %): 0.98%
Change In Mass (%)-ref, Desorption ([1]; Target RH 95.0 %): 11.32%
Change In Mass (%)-ref, Hysteresis ([1]; Target RH 95.0 %): 2.85%
Change In Mass (%)-ref, Sorption ([1]; Target RH 95.0 %): 8.47%
Change In Mass (%)-ref, Desorption ([1]; Target RH 98.0 %): 11.18%
Change In Mass (%)-ref, Sorption ([1]; Target RH 98.0 %): 11.18%
Change In Mass (%)-ref, Desorption ([1]; Target RH […]): 0.79%
Change In Mass (%)-ref, Hysteresis ([1]; Target RH […]): 0.12%
Change In Mass (%)-ref, Sorption ([1]; Target RH […]): 0.66%
weight gain [1]: 11.2%
weight lost upon equilibration ([1]; at ˜0% RH): 0.1 wt %
weight gain with increasing RH [1]: ~1.0 wt %

CCC(=O)N[C@@H](Cc1cccc(C(=O)OCOC(=O)C(CC)CC)c1O)B1OC(=O)C(CC(=O)O)(CC(=O)O)O1 [(R)-(2-(3-((((2-ethylbutanoyl)oxy)methoxy)carbonyl)-2-hydroxyphenyl)-1-propionamidoethyl)boronic acid citrate]
solid form after DVS cycle, by XRPD [1]: remained crystalline, as Form A
hygroscopicity (in words) ([1]; 0-85% RH): non-hygroscopic
Change In Mass (%)-ref, Desorption ([1]; Target RH 0.0 %): −0.023%
Change In Mass (%)-ref, Sorption ([1]; Target RH 0.0 %): 0.000%
Change In Mass (%)-ref, Desorption ([1]; Target RH 5.0 %): 0.012%
Change In Mass (%)-ref, Hysteresis ([1]; Target RH 5.0 %): −0.006%
Change In Mass (%)-ref, Sorption ([1]; Target RH 5.0 %): 0.019%
Change In Mass (%)-ref, Desorption ([1]; Target RH 15.0 %): 0.065%
Change In Mass (%)-ref, Hysteresis ([1]; Target RH 15.0 %): −0.008%
Change In Mass (%)-ref, Sorption ([1]; Target RH 15.0 %): 0.073%
Change In Mass (%)-ref, Desorption ([1]; Target RH 25.0 %): 0.119%
Change In Mass (%)-ref, Hysteresis ([1]; Target RH 25.0 %): −0.003%
Change In Mass (%)-ref, Sorption ([1]; Target RH 25.0 %): 0.121%
Change In Mass (%)-ref, Desorption ([1]; Target RH 35.0 %): 0.167%
Change In Mass (%)-ref, Hysteresis ([1]; Target RH 35.0 %): 0.008%
Change In Mass (%)-ref, Sorption ([1]; Target RH 35.0 %): 0.159%
Change In Mass (%)-ref, Desorption ([1]; Target RH 45.0 %): 0.218%
Change In Mass (%)-ref, Hysteresis ([1]; Target RH 45.0 %): 0.013%
Change In Mass (%)-ref, Sorption ([1]; Target RH 45.0 %): 0.205%
Change In Mass (%)-ref, Desorption ([1]; Target RH 55.0 %): 0.279%
Change In Mass (%)-ref, Hysteresis ([1]; Target RH 55.0 %): 0.019%
Change In Mass (%)-ref, Sorption ([1]; Target RH 55.0 %): 0.259%
Change In Mass (%)-ref, Desorption ([1]; Target RH 65.0 %): 0.356%
Change In Mass (%)-ref, Hysteresis ([1]; Target RH 65.0 %): 0.038%
Change In Mass (%)-ref, Sorption ([1]; Target RH 65.0 %): 0.318%
Change In Mass (%)-ref, Desorption ([1]; Target RH 85.0 %): 0.604%
Change In Mass (%)-ref, Hysteresis ([1]; Target RH 85.0 %): 0.102%
Change In Mass (%)-ref, Sorption ([1]; Target RH 85.0 %): 0.502%
Change In Mass (%)-ref, Desorption ([1]; Target RH 95.0 %): 4.054%
Change In Mass (%)-ref, Hysteresis ([1]; Target RH 95.0 %): 0.764%
Change In Mass (%)-ref, Sorption ([1]; Target RH 95.0 %): 3.289%
Change In Mass (%)-ref, Desorption ([1]; Target RH 98.0 %): 4.006%
Change In Mass (%)-ref, Sorption ([1]; Target RH 98.0 %): 4.006%
Change In Mass (%)-ref, Desorption ([1]; Target RH […]): 0.457%
Change In Mass (%)-ref, Hysteresis ([1]; Target RH […]): 0.056%
Change In Mass (%)-ref, Sorption ([1]; Target RH […]): 0.401%
weight gain [1]: 4.0%
weight gain with increasing RH [1]: 0.5 wt %

Nc1nc(/C(=C/CC(=O)O)C(=O)N[C@@H]2C(=O)N3C(C(=O)O)=CCS[C@H]23)cs1 [Ceftibuten dihydrate, reference compound]
degradation (in words) [2]: temperature dependent degradation
HPLC purity (% peak area) [2, 5]: 98.6%
HPLC purity (% peak area) [2, 6]: 98.6%
HPLC purity (% peak area) [2, 7]: 98.6%
HPLC purity (% peak area) [2, 8]: 98.4%
HPLC purity (% peak area) [2, 9]: 98.6%
HPLC purity (% peak area) [2, 10]: 98.4%
HPLC purity (% peak area) [2, 11]: 96.7%
HPLC purity (% peak area) [2, 12]: 92.8%
HPLC purity (% peak area) [2, 13]: 98.4%
HPLC purity (% peak area) [2, 14]: 98.6%
HPLC purity (% peak area) [2, 15]: 98.3%
HPLC purity (% peak area) [2, 16]: 96.8%
HPLC purity (% peak area) [2, 17]: 97.5%
HPLC purity (% peak area) [2, 18]: 94.8%
HPLC purity (% peak area) [2, 19]: 93.7%
HPLC Purity (Peak Area %) Ceftibuten ([3]; 2 weeks): 99.2%
HPLC Purity (Peak Area %) Ceftibuten ([3]; 5 weeks): 94.8%

CCOB1Oc2c(cccc2C(=O)OCOC(=O)C(CC)CC)C[C@@H]1NC(=O)CC [Compound 1 Ethanolate, ((2-ethylbutanoyl)oxy)methyl (R)-2-ethoxy-3-propionamido-3,4-dihydro-2H-benzo[e][1,2]oxaborinine-8-carboxylate]
release of the drug substance ([4]; at 60 minutes): < 40%

CCC(=O)N[C@@H](Cc1cccc(C(=O)OCOC(=O)C(CC)CC)c1O)B1OC(=O)C(CC(=O)O)(CC(=O)O)O1 [Compound 1 citrate coordination complex, (R)-2,2′-(2-(2-(3-((((2-ethylbutanoyl)oxy)methoxy)carbonyl)-2-hydroxyphenyl)-1-propionamidoethyl)-5-oxo-1,3,2-dioxaborolane-4,4-diyl)diacetic acid]
degradation (in words) [2]: no degradation
HPLC purity (% peak area) [2, 5]: 100.0%
HPLC purity (% peak area) [2, 6]: 100.0%
HPLC purity (% peak area) [2, 7]: 100.0%
HPLC purity (% peak area) [2, 8]: 100.0%
HPLC purity (% peak area) [2, 9]: 100.0%
HPLC purity (% peak area) [2, 10]: 100.0%
HPLC purity (% peak area) [2, 11]: 100.0%
HPLC purity (% peak area) [2, 12]: 100.0%
HPLC purity (% peak area) [2, 13]: 100.0%
HPLC purity (% peak area) [2, 14]: 100.0%
HPLC purity (% peak area) [2, 15]: 100.0%
HPLC purity (% peak area) [2, 16]: 100.0%
HPLC purity (% peak area) [2, 17]: 100.0%
HPLC purity (% peak area) ([2]; in binary Blend, 40° C. Storage, 5 weeks): 100.0%
HPLC purity (% peak area) [2, 18]: 100.0%
HPLC purity (% peak area) [2, 19]: 100.0%
HPLC Purity (Peak Area %) Compound 1 ([3]; 2 weeks): 100.0%
HPLC Purity (Peak Area %) Compound 1 ([3]; 5 weeks): 100.0%
chemical stability in the presence of the excipients (in words) ([3]; accelerated data): comparable to the stability for the drug substance controls
release of the drug substance ([4]; by 10 minutes): 100%
